Active and inactive are the calls of the source. The calls are words filed in the database; no cut-off is given here.
Tests used:
[1] = target: Metabotropic glutamate receptor 2 (Rattus norvegicus, UniProt P31421); assay: Positive allosteric modulation of rat mGluR2 expressed in HEK293 cells co-expressing Galpha15 G protein assessed as increase in glutamate-induced intracellular calcium release by FLIPR assay; format: functional, cell-based
D(2) dopamine receptor = D(2) dopamine receptor (Rattus norvegicus, UniProt P61169); assay: Displacement of [3H]spiperone from dopamine D2 receptor in rat corpus striatum by beta plate scintillation counting; format: tissue-based
Sequence of D(2) dopamine receptor (P61169 whole entry): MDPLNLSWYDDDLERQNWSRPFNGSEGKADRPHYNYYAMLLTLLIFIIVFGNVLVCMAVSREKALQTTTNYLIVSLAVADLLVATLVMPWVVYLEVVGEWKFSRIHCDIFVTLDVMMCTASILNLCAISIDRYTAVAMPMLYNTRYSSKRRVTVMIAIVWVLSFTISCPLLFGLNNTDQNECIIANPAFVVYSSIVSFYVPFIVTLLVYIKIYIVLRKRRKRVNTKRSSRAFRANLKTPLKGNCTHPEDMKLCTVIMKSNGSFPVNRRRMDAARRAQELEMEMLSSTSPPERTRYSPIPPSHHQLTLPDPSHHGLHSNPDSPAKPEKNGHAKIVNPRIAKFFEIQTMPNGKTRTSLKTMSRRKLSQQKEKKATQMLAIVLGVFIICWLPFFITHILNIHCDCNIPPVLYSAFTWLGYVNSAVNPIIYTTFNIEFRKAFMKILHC

[2] = target: Metabotropic glutamate receptor 1 (Homo sapiens) (UniProt Q13255); assay: Agonist activity at mGlu1 receptor at up to 10 uM; format: functional
Sequence of Metabotropic glutamate receptor 1 (Homo sapiens) (Q13255 19-1194 limits assumed): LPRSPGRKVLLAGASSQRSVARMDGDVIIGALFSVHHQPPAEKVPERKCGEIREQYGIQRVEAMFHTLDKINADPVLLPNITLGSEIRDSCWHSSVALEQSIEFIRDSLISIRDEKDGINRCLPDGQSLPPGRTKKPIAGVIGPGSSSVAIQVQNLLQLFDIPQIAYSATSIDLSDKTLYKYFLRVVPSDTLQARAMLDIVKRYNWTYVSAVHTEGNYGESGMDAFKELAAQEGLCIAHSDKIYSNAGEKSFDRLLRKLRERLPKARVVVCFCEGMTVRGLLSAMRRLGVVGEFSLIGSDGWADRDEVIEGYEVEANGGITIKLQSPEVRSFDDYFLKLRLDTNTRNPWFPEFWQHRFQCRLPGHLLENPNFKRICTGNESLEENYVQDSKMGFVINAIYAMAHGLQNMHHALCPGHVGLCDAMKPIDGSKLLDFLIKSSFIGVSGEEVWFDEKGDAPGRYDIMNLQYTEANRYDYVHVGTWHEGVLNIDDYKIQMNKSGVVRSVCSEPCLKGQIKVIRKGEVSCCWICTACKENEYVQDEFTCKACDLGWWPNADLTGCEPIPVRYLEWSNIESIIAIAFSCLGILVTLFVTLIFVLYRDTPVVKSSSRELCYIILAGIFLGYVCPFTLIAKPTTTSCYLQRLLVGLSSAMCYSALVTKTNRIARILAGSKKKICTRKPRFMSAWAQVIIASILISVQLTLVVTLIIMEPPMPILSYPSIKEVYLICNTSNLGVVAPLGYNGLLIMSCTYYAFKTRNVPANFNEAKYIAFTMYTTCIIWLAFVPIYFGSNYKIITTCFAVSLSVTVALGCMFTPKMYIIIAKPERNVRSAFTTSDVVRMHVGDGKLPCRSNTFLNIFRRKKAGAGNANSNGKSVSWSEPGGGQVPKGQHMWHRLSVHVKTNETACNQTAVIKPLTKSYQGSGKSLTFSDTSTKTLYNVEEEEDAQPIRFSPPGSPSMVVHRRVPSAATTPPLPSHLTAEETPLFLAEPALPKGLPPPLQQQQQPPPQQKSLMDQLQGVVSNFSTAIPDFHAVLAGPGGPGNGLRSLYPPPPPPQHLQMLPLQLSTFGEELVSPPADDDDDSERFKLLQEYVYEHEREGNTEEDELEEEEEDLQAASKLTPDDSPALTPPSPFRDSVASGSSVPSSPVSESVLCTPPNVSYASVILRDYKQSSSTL

[3] = target: Metabotropic glutamate receptor 5 (Homo sapiens) (UniProt P41594); assay: Antagonist activity at mGlu5 receptor at up to 10 uM; format: functional
Sequence of Metabotropic glutamate receptor 5 (Homo sapiens) (P41594 21-1212 limits assumed): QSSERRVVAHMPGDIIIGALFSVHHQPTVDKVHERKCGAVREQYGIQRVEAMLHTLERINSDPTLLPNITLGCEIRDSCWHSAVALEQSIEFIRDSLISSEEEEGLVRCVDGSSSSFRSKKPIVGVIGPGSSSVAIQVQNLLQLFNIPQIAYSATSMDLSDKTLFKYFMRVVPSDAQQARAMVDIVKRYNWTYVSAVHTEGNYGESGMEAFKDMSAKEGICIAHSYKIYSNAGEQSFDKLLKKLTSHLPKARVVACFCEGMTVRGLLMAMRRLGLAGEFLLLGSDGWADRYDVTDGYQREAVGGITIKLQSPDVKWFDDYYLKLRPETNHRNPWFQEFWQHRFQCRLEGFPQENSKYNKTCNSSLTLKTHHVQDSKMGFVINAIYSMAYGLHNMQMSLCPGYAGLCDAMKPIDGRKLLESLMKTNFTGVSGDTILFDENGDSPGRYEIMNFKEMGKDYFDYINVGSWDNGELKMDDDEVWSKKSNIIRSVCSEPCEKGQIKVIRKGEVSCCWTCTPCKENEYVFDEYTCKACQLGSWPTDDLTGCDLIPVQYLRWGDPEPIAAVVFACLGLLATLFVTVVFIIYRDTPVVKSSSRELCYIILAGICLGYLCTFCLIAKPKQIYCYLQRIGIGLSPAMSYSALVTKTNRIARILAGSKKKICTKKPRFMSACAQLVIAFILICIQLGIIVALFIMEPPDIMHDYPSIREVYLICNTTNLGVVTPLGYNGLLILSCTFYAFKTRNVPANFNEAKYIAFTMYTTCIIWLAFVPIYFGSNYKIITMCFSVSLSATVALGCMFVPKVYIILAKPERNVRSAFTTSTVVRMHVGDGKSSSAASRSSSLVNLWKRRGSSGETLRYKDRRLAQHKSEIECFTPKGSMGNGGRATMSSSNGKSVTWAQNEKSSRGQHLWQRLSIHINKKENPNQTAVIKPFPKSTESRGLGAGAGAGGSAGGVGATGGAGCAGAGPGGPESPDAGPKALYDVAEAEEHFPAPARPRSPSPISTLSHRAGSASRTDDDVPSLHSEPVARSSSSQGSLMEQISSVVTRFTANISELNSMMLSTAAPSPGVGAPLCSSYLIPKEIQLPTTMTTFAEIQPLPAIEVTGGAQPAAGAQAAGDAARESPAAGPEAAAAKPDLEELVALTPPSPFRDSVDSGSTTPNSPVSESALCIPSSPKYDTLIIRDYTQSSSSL

[4] = Permeability from apical to basolateral side of MDR1 transfected MDCK cells at 1 uM; format: ADME, cell-based, Canis lupus familiaris; conditions: dog, read-out: permeability
[5] = target: Metabotropic glutamate receptor 5 (Homo sapiens) (UniProt P41594); assay: Agonist activity at mGlu5 receptor at up to 10 uM; format: functional
[6] = target: Metabotropic glutamate receptor 5 (Homo sapiens) (UniProt P41594); assay: Positive allosteric modulation of mGlu5 receptor at up to 10 uM
[7] = Ratio of drug level in brain to plasma in mouse at 10 mg/kg, sc after 60 mins; format: ADME, organism-based; design: dose 10 mg/kg, route subcutaneous
[8] = Cmax in rat brain at 10 mg/kg, po; format: ADME, organism-based; design: dose 10 mg/kg, route oral
HEK293 = assay: Selectivity ratio of Ki for dopamine D2 receptor in rat corpus striatum to EC50 for rat mGluR2 expressed in HEK293 cells; format: cell-based
[9] = Ratio of drug level in brain to plasma in rat at 3.2 mg/kg, sc after 60 mins; format: ADME, organism-based; design: dose 3.2 mg/kg, route subcutaneous
[10] = target: Metabotropic glutamate receptor 2 (Homo sapiens, UniProt Q14416); assay: Positive allosteric modulation of human mGluR2 expressed in HEK293 cells co-expressing Galpha15 G protein assessed as increase in glutamate-induced intracellular calcium release by FLIPR assay; format: functional, cell-based
Sequence of Metabotropic glutamate receptor 2 (Homo sapiens, UniProt Q14416) (Q14416 whole entry): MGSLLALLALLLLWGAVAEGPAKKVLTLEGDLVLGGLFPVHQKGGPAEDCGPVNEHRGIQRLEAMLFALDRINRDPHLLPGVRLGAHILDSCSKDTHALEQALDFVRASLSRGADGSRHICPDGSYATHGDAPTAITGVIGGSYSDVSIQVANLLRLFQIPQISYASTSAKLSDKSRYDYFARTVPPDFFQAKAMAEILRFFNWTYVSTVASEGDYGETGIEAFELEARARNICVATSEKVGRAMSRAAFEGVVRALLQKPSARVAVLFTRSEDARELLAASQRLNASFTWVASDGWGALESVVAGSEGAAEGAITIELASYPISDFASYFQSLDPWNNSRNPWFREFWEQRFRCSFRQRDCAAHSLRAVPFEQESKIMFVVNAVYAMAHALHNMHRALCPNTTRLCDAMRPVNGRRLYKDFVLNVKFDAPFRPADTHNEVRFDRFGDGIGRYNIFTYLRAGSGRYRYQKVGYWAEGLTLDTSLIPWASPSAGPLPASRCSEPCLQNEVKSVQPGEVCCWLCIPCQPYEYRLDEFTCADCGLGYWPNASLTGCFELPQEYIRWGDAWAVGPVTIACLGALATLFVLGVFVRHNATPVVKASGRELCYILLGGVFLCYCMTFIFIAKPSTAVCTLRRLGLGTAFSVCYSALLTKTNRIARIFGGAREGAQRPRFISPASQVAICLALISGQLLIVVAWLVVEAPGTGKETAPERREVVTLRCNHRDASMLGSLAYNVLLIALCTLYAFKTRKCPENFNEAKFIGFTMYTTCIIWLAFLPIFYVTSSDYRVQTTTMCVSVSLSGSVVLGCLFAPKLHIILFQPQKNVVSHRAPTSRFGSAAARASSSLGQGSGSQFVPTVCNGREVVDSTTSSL

[11] = Oral bioavailability in rat at 10 mg/kg; format: ADME, organism-based; conditions: in vivo
[12] = target: Metabotropic glutamate receptor 1 (Homo sapiens) (UniProt Q13255); assay: Antagonist activity at mGlu1 receptor at up to 10 uM; format: functional
Brain = assay: Fraction unbound in rat brain by LC-MS/MS assay; format: ADME, tissue-based
[13] = Plasma clearance in rat at 1 mg/kg, iv; format: ADME, organism-based; design: dose 1 mg/kg, route intravenous
MDCK = assay: Efflux ratio of permeability from […] of MDR1 transfected MDCK cells at 1 uM; format: ADME, cell-based, Canis lupus familiaris; conditions: dog

Sequence of Metabotropic glutamate receptor 2 (Rattus norvegicus, UniProt P31421) (P31421 whole entry): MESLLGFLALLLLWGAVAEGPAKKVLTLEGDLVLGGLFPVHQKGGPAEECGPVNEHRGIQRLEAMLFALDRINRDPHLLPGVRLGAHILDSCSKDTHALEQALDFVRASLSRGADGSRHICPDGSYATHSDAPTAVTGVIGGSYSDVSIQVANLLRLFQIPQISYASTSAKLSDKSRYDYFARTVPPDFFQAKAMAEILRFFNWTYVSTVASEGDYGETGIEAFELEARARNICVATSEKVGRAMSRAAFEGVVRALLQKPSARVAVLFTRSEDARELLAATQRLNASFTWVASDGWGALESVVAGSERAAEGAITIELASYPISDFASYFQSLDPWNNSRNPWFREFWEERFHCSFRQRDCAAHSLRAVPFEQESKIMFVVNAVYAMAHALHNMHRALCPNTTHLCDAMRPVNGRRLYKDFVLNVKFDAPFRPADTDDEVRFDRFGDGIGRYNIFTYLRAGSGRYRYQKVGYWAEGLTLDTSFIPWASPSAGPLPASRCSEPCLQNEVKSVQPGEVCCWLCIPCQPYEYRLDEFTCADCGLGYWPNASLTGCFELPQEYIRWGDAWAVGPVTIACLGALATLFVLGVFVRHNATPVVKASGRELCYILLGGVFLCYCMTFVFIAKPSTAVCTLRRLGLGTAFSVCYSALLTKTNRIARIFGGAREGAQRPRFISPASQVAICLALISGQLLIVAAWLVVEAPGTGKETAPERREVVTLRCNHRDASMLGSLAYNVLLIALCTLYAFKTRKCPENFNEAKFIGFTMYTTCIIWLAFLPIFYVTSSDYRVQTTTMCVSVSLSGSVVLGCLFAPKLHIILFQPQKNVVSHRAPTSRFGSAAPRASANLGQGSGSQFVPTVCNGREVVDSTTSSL

| Compound | EC50 [1] [nM] | Ki (D(2) dopamine receptor) [nM] | other results |
| --- | --- | --- | --- |
| C[C@@H]1C[C@H](c2ccc(C(F)(F)F)cc2)CCN1Cc1nc2ncccc2n1C | 454 | 589 |  |
| Cn1c(CN2[C@@H]3CC[C@H]2CC(c2ccc(C(F)(F)F)cc2)C3)nc2ncccc21 (stereo partly specified) | 184 | 355 |  |
| Cn1c(CN2CCC(c3ccc(C(F)(F)F)cc3)CC2)nc2cnccc21 | 168 | 671 |  |
| Cn1c(CN2CCC(c3ccc(C(F)(F)F)cc3)CC2)nc2ccccc21 | 78 | 561 |  |
| COc1ccccc1N1CCN(Cc2c(Br)c(=O)n(-c3ccccc3)n2C)CC1 | 891 |  |  |
| Cn1c(CN2CCC(c3cccc(C#N)c3)CC2)nc2ccccc21 | 1620 |  |  |
| C[C@H]1CN(Cc2nc3ncccc3n2C)CC[C@H]1c1ccc(C(F)(F)F)cc1F | 9 | > 5260 | Activity [2]: inactive; Activity [3]: inactive; Papp A→B at 1 µM [4]: 26 ×10⁻⁶ cm/s; Activity [5]: inactive; Activity [6]: inactive; Kp at 1 h [7]: 1.9; Cmax [8]: 3.12 µM; Ratio (HEK293): > 584; Kp at 1 h [9]: 7; EC50 [10]: 3 nM; bioavailability [11]: 74%; Activity [12]: inactive; Fu (Brain): 0.5%; clearance [13]: 7.5 mL/min/kg; Ratio (MDCK): 1.7 |
| C[C@H]1CN(Cc2nc3ncccc3n2C)CC[C@H]1c1ccc(C(F)(F)F)cc1 (racemic) | 111 | > 2800 |  |
| Cn1c(CN2CCC(c3ccc(C(F)(F)F)cc3)CC2)nc2cccnc21 | 285 |  |  |
| Cn1c(CN2CCC(c3ccc(OC(F)(F)F)cc3F)CC2)nc2ncccc21 | 25 | 1180 |  |
| C[C@H]1CN(Cc2nc3ncccc3n2C)CC[C@H]1c1ccc(C(F)(F)F)cc1 | 33 | > 2800 |  |
| C[C@@H]1CN(Cc2nc3ncccc3n2C)CC[C@@H]1c1ccc(Cl)cc1F | > 1810 |  |  |
| C[C@@H]1CN(Cc2nc3ncccc3n2C)CC[C@@H]1c1ccc(C(F)(F)F)cc1F | 993 |  |  |
| Cn1c(CN2CCC(c3ccc(C(F)(F)F)cc3)CC2)nc2ncccc21 | 48 | 404 | Papp A→B at 1 µM [4]: 30 ×10⁻⁶ cm/s; Cmax [8]: 5.21 µM; Ratio (HEK293): 8; Kp at 1 h [9]: 5; EC50 [10]: 43 nM; bioavailability [11]: 100%; clearance [13]: 5.4 mL/min/kg; Ratio (MDCK): 1.4 |
| Cn1c(CN2CCC(c3ccc(C(F)(F)F)cc3F)CC2)nc2ncccc21 | 25.1 | 1780 |  |
| COc1cc(C(F)(F)F)ccc1C1CCN(Cc2nc3ncccc3n2C)CC1 | 13 | 2430 |  |
| COc1cc(C(F)(F)F)ccc1[C@H]1CCN(Cc2nc3ncccc3n2C)C[C@H]1C | 787 |  |  |
